Results on 7 cell lines are retold here after the supplement of paper PMC10307832.

Assay in all cases: relative viability (nuclei count vs DMSO), 5 days (fraction); higher = more cells survive
Compound in test [1]: CC(C)=CC[C@@H](O)C1=CC(=O)c2c(O)ccc(O)c2C1=O [Shikonin] + O=C(c1cc(Cc2n[nH]c(=O)c3ccccc23)ccc1F)N1CCN(C(=O)C2CC2)CC1 [Olaparib] (partner 8 µM)
An outline of the steps:
(§1)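 Lung cancer cell lines in 1536-well plates were dosed by pin tool the day after seeding, either with one drug alone or with a fixed anchor-drug dose plus five library-drug doses (not always all listed) in √10 steps. After 5 days, cells were fixed and their nuclei stained in one step (final 0.05% Triton X-100, 1% formaldehyde, 1 ug/ml Hoechst), then counted on 4× images. Relative viability is the nuclei count in treated wells divided by that in vehicle wells. Values are medians of duplicate plates.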

Compound in test [2]: CC(C)N(CCCNC(=O)Nc1ccc(C(C)(C)C)cc1)C[C@H]1O[C@@H](n2ccc3c(N)ncnc32)[C@H](O)[C@@H]1O + CC(=O)Nc1cccc(-n2c(=O)n(C3CC3)c(=O)c3c(Nc4ccc(I)cc4F)n(C)c(=O)c(C)c32)c1 [Trametinib] (partner 0.02 µM)
The method in brief:
as §1

Compound in test [3]: CC(C)N(CCCNC(=O)Nc1ccc(C(C)(C)C)cc1)C[C@H]1O[C@@H](n2ccc3c(N)ncnc32)[C@H](O)[C@@H]1O + COc1cccc2cc(-c3nc([C@H]4CC[C@H](C(=O)O)CC4)n4ncnc(N)c34)[nH]c12 [OSI-027] (partner 0.5 µM)
The method in brief:
as §1

Compound in test [4]: CC(C)N(CCCNC(=O)Nc1ccc(C(C)(C)C)cc1)C[C@H]1O[C@@H](n2ccc3c(N)ncnc32)[C@H](O)[C@@H]1O + C[C@@H](Oc1cc(-c2cnn(C3CCNCC3)c2)cnc1N)c1c(Cl)ccc(F)c1Cl [Crizotinib] (partner 1 µM)
An outline of the steps:
as §1

NCI-H1915: the relative viability in test [1] (first compound 0.01 µM) came out at 0.254; in test [1] (first compound 0.1 µM) it was 0.268; in test [1] (first compound 0.3162 µM) it was 0.257; in test [1] (first compound 1 µM), 0.245; in test [2] (first compound 0.08 µM), 0.3; in test [2] (first compound 0.253 µM), 0.306. In addition, the relative viability was 0.302 in test [2] (first compound 0.8 µM); 0.311 in test [2] (first compound 2.53 µM); 0.292 in test [2] (first compound 8 µM); 0.58 in test [3] (first compound 0.08 µM); 0.732 in test [3] (first compound 0.253 µM); 0.651 in test [3] (first compound 0.8 µM). Moreover, the relative viability turned out to be 0.645 in test [3] (first compound 2.53 µM); 0.624 in test [3] (first compound 8 µM); 0.937 in test [4] (first compound 0.08 µM); 0.879 in test [4] (first compound 0.253 µM); 0.768 in test [4] (first compound 0.8 µM); 0.863 in test [4] (first compound 2.53 µM). Further, the relative viability in test [4] (first compound 8 µM) stood at 0.793.
Regarding NCI-H3122, the relative viability was 0.655 in test [1] (first compound 0.01 µM); 0.631 in test [1] (first compound 0.1 µM); 0.621 in test [1] (first compound 0.3162 µM); 0.679 in test [1] (first compound 1 µM); 0.242 in test [2] (first compound 0.08 µM); 0.299 in test [2] (first compound 0.253 µM). The relative viability in test [2] (first compound 0.8 µM) is 0.202; in test [2] (first compound 2.53 µM), 0.242; in test [2] (first compound 8 µM), 0.247; in test [3] (first compound 0.08 µM), 0.897; in test [3] (first compound 0.253 µM), 1.02; in test [3] (first compound 0.8 µM), 0.925. Also, the relative viability was found to be 0.926 in test [3] (first compound 2.53 µM); 0.722 in test [3] (first compound 8 µM); 0.349 in test [4] (first compound 0.08 µM); 0.299 in test [4] (first compound 0.253 µM); 0.285 in test [4] (first compound 0.8 µM); 0.3 in test [4] (first compound 2.53 µM). The relative viability in test [4] (first compound 8 µM) turned out to be 0.277.
Turning to NCI-H441, the relative viability in test [1] (first compound 0.01 µM) was 0.647; in test [1] (first compound 0.1 µM), 0.637; in test [1] (first compound 0.3162 µM) it was 0.626; in test [1] (first compound 1 µM) it was 0.531; in test [2] (first compound 0.08 µM), 0.407; in test [2] (first compound 0.253 µM), 0.432. Further, the relative viability is 0.498 in test [2] (first compound 2.53 µM); 0.474 in test [2] (first compound 8 µM); 0.589 in test [3] (first compound 0.08 µM); 0.587 in test [3] (first compound 0.253 µM); 0.735 in test [3] (first compound 2.53 µM); 0.661 in test [3] (first compound 8 µM). Also, the relative viability amounted to 0.815 in test [4] (first compound 0.08 µM); 0.872 in test [4] (first compound 0.253 µM); 1.09 in test [4] (first compound 0.8 µM); 0.714 in test [4] (first compound 2.53 µM); 0.673 in test [4] (first compound 8 µM).
Regarding NCI-H2170, the relative viability in test [1] (first compound 0.01 µM) was determined as 0.623; in test [1] (first compound 0.1 µM), 0.594; in test [1] (first compound 0.3162 µM) it was 0.588; in test [1] (first compound 1 µM), 0.576; in test [2] (first compound 0.08 µM) it was 0.965; in test [2] (first compound 0.253 µM) it was 0.912. Besides, the relative viability in test [2] (first compound 0.8 µM) was found to be 0.862; in test [2] (first compound 2.53 µM), 0.866; in test [2] (first compound 8 µM), 0.914; in test [3] (first compound 0.08 µM), 0.675; in test [3] (first compound 0.253 µM) it was 0.7; in test [3] (first compound 0.8 µM), 0.669. For the same cell line, the relative viability in test [3] (first compound 2.53 µM) was found to be 0.709; in test [3] (first compound 8 µM) it was 0.748; in test [4] (first compound 0.08 µM), 1.12; in test [4] (first compound 0.253 µM), 1.18; in test [4] (first compound 0.8 µM), 1.22; in test [4] (first compound 2.53 µM), 1.19. The relative viability in test [4] (first compound 8 µM) amounted to 1.28.
Regarding NCI-H358, the relative viability in test [1] (first compound 0.01 µM) is 0.622; in test [1] (first compound 0.1 µM), 0.619; in test [1] (first compound 0.3162 µM) it was 0.539; in test [1] (first compound 1 µM), 0.219; in test [2] (first compound 0.08 µM) it was 0.135; in test [2] (first compound 0.253 µM) it was 0.137. Besides, the relative viability in test [2] (first compound 0.8 µM) is 0.132; in test [2] (first compound 2.53 µM), 0.13; in test [2] (first compound 8 µM), 0.138; in test [3] (first compound 0.08 µM), 0.75; in test [3] (first compound 0.253 µM) it was 0.61; in test [3] (first compound 0.8 µM) it was 0.724. In addition, the relative viability was found to be 0.752 in test [3] (first compound 2.53 µM); 0.714 in test [3] (first compound 8 µM); 0.614 in test [4] (first compound 0.08 µM); 0.554 in test [4] (first compound 0.253 µM); 0.717 in test [4] (first compound 0.8 µM); 0.589 in test [4] (first compound 2.53 µM). Further, the relative viability in test [4] (first compound 8 µM) worked out at 0.448.
Take PC-3 [JPC-3]: the relative viability stood at 1.08 in test [1] (first compound 0.01 µM); 1.16 in test [1] (first compound 0.1 µM); 1.33 in test [1] (first compound 0.3162 µM); 1.27 in test [1] (first compound 1 µM); 0.664 in test [2] (first compound 0.08 µM); 0.722 in test [2] (first compound 0.253 µM). Also, the relative viability in test [2] (first compound 2.53 µM) stood at 0.715; in test [2] (first compound 8 µM), 0.683; in test [3] (first compound 0.08 µM), 0.801; in test [3] (first compound 0.253 µM), 0.867; in test [3] (first compound 0.8 µM), 0.718; in test [3] (first compound 2.53 µM) it was 0.779. The relative viability in test [3] (first compound 8 µM) turned out to be 0.721; in test [4] (first compound 0.08 µM) it was 0.991; in test [4] (first compound 0.253 µM) it was 0.994; in test [4] (first compound 0.8 µM) it was 0.885; in test [4] (first compound 2.53 µM), 0.977; in test [4] (first compound 8 µM) it was 0.917.
As to CAL-12T, the relative viability turned out to be 0.767 in test [1] (first compound 0.01 µM); 0.849 in test [1] (first compound 0.1 µM); 0.789 in test [1] (first compound 0.3162 µM); 0.639 in test [1] (first compound 1 µM); 0.346 in test [2] (first compound 0.08 µM); 0.345 in test [2] (first compound 0.253 µM). Besides, the relative viability in test [2] (first compound 0.8 µM) was 0.362; in test [2] (first compound 2.53 µM) it was 0.323; in test [2] (first compound 8 µM), 0.306; in test [3] (first compound 0.08 µM) it was 0.603; in test [3] (first compound 0.253 µM) it was 0.498; in test [3] (first compound 0.8 µM), 0.635. Moreover, the relative viability came out at 0.579 in test [3] (first compound 2.53 µM); 0.53 in test [3] (first compound 8 µM); 0.626 in test [4] (first compound 0.08 µM); 0.548 in test [4] (first compound 0.253 µM); 0.63 in test [4] (first compound 0.8 µM); 0.563 in test [4] (first compound 2.53 µM). In addition, the relative viability in test [4] (first compound 8 µM) came to 0.529.
